Assay results: patent US20020187998A1, “Local ophthalmic agent for treatment of ocular inflammation” (Sucampo AG, priority 2001, published 2002)

How the values were obtained:
Assay type in all cases: in vivo, human
[1] = test system: penetrating keratoplasty due to keratoconus; assay: Patient case, FK506 eye drops after penetrating keratoplasty due to keratoconus (Example 9); details: 0.06% FK506 eye drops three times a day
[2] = test system: progressive corneal ulcer caused by pemphigoid; assay: Patient case, FK506 eye drops (Example 3); details: 0.06% FK506 eye drops three times a day, one patient
Excerpt: A patient suffering from progressive corneal ulcer caused by pemphigoid was instilled with 0.06% FK506 eye drops three times a day.

[3] = test system: inflammations caused by injury after penetrating keratoplasty, history of steroid glaucoma and chronic rejection; assay: Patient case, FK506 eye drops after penetrating keratoplasty (Example 7); details: 0.06% FK506 eye drops three times a day
Excerpt: As a result, the progression of inflammations caused by injury was arrested and such effects were maintained at 34 weeks later.

[4] = test system: chronic nummular keratitis; assay: Patient case, FK506 eye drops (Example 5); details: 0.06% FK506 eye drops three times a day, one patient
Excerpt: A patient suffering from chronic nummular keratitis was instilled with 0.06% FK506 eye drops three times a day.

[5] = test system: blepharokeratoconjunctivitis; assay: Patient case, FK506 eye drops (Example 8); details: 0.06% FK506 eye drops three times a day
[6] = test system: Thygeson keratitis; assay: Patient case, FK506 eye drops (Example 6); details: 0.06% FK506 eye drops three times a day
[7] = test system: progressive Mooren's ulcer; assay: Patient case, FK506 eye drops (Example 4); details: 0.06% FK506 eye drops three times a day, one patient
Excerpt: A patient suffering from progressive Mooren's ulcer was instilled with 0.06% FK506 eye drops three times a day.

[8] = test system: inflammations caused by foreign bodies (cat hair, cat dander, pollens of a tree, ragweed or grass) instilled in the eye; assay: Itching on the eye after ocular instillation of foreign bodies, 3 hours after FK506 eye drops (Example 1); details: foreign bodies 3 hours after instillation, graded 5 minutes later, score 0-4, FIG. 1
Excerpt: In a total of four groups each having 30 persons, FK506 eye drops (0.01%, 0.06% and 0.1%) were instilled in the respective experimental groups, and placebo was instilled in the control group. Three hours after the ocular instillation, various foreign bodies (cat hair, cat dander, and pollens of a tree, ragweed or grass) were ocularly instilled in both the experimental groups and the control group, thus causing inflammations. Five minutes later, itching on the eye was graded according to five-rank scores (0-4). The decreases from the score (baseline) in instilling only foreign bodies were calculated.

[9] = test system: inflammations caused by foreign bodies (cat hair, cat dander, pollens of a tree, ragweed or grass) instilled in the eye; assay: Conjunctival hyperemia and chemosis after ocular instillation of foreign bodies, 16 hours after final instillation (Example 2); details: 0.1% FK506 eye drops once a day for one week
Protocol: FK506 was ocularly instilled in the subjects once a day for one week, and the same amount of placebo was ocularly instilled in the control group. At 16 hours after the final ocular instillation, various foreign bodies (cat hair, cat dander, and pollens of a tree, ragweed or grass) were ocularly instilled in both the experimental groups and the control group, thus causing the inflammations. Ten minutes later, conjunctival hyperemia and chemosis were graded according to five-rank scores (0-4). The changes from the score (baseline) in instilling only foreign bodies were calculated.

[10] = one patient without conventional therapy

Question: Which results are given for `C=CC[C@@H]1/C=C(\C)C[C@H](C)C[C@H](OC)[C@H]2O[C@@](O)(C(=O)C(=O)N3CCCC[C@H]3C(=O)O[C@H](/C(C)=C/[C@@H]3CC[C@@H](O)[C@H](OC)C3)[C@H](C)[C@@H](O)CC1=O)[C@H](C)C[C@@H]2OC` [FK506, 17-allyl-1,14-dihydroxy-12-[2-(4-hydroxy-3-methoxycyclohexyl)-1-methylvinyl]-23,25-dimethoxy-13,19,21,27-tetramethyl-11,28-dioxa-4-azatricyclo [22.3.1.0^4,9]octacos-18-ene-2,3,10,16-tetraone]?
Answer: time at which effects were maintained ([1]; one patient): 25 weeks; improving effects [1, 10]: significant improving effects were observed; improving effects [2]: significant improving effects were observed; time at which effects were maintained [2]: 43 weeks; progression of inflammations caused by injury ([3]; one patient): arrested; time at which effects were maintained ([3]; one patient): 34 weeks; intraocular pressure increase ([3]; patient with history of steroid glaucoma): no intraocular pressure increase was observed; improving effects [4]: significant improving effects were observed; time at which effects were maintained [4]: 43 weeks; time until improving effects were observed [4]: two; time at which effects were maintained ([5]; one patient): 18 weeks; time until improving effects were observed ([5]; one patient): two; improving effects [5, 10]: significant improving effects were observed; time at which effects were maintained ([6]; one patient): 41 weeks; time until improving effects were observed ([6]; one patient): three; improving effects [6, 10]: significant improving effects were observed; improving effects [7]: significant improving effects were observed; time at which effects were maintained [7]: 41 weeks; decreases of itching score from the baseline, compared with placebo ([8]; 0.01% FK506 eye drops): decreases of itching were greater; decreases of itching score from the baseline, compared with placebo ([8]; 0.06% FK506 eye drops): decreases of itching were greater; decreases of itching score from the baseline, compared with placebo ([8]; 0.1% FK506 eye drops): decreases of itching were greater; duration of ocular anti-inflammatory effects (antiedemic effect and anti-flare effect) [9]: at least 16 hours; Changes of chemosis scores from the baseline, mean ± S.E. ([9]; challenge 16 hours after final instillation, graded 10 minutes later, score 0-4, p < 0.001): −0.30 ± 0.07; Changes of conjunctival hyperemia scores from the baseline, mean ± S.E. ([9]; challenge 16 hours after final instillation, graded 10 minutes later, score 0-4, p < 0.01): −0.51 ± 0.07
